Results published in article PMC6274227, “Interactions of Bovine Serum Albumin with Anti-Cancer Compounds Using a ProteOn XPR36 Array Biosensor and Molecular Docking” (Molecules, 2016).

How the values were obtained:
[1] = target: T1, bovine serum albumin (BSA) (Bos taurus, UniProt P02769); assay: ProteOn XPR36 SPR array biosensor binding to immobilized BSA; conditions: for binding to the immobilized BSA (sensorgram): SPR, PBS-T buffer pH 7.4, 25 °C; for koff / kon: bovine, pH 7.4
Method: The GLH sensor chip, consisting of glass prisms coated with gold and an alginate-based layer, was an ideal choice for examining protein-small molecule interactions. The chip was initialized with 50% glycerol for several minutes prior to use.
Following initialization, the GLH sensor chip was washed with 0.5% SDS, 50 mM NaOH and 100 mM HCl, respectively, for 1 min each, at a flow rate of 100 µL/min. PBS-T buffer (10 mM sodium phosphate, 150 mM NaCl, and 0.005% Tween 20, pH 7.4) was then injected in three pulses for baseline stabilization.
One of the six channels was activated with a mixture of EDC (40 mM) and sulfo-NHS (10 mM) in the horizontal direction for 3 min, at a flow rate of 30 µL/min. BSA (2 mg/mL) was diluted to 300 nM in 10 mM sodium acetate (pH 4.0) and immobilized on the channel for 5 min, at a flow rate of 30 µL/min. Next, the channel was blocked by injection of 1 M ethanolamine-HCl for 5 min. […] Baseline equilibration was performed by multiple washes with running buffer (PBS-T) across the chip surface for 1 h.
Each compound was tested at six concentrations using a two-fold dilution series. Gradient concentrations of each compound were simultaneously injected over the BSA-immobilized surface at a flow rate of 30 µL/min in the vertical direction, where the association and dissociation times were 80 s and 60 s, respectively. All interaction analyses were performed at 25 °C.
All sensorgrams for protein binding were collected, processed, and analyzed using the ProteOn Manager software. We utilized two types of reference sources, the standard blank buffer reference, and interspot reference, which was the average response before and after each interaction spot to correct for nonspecific binding. The target protein was washed off in the dissociation phase, which caused baseline drift, although real-time injection of a blank reference can completely correct this baseline drift by subtracting artifacts in real time. The dual references were both subtracted from the interaction spot data to correct for any bulk shifts due to baseline drift and nonspecific binding. Finally, the data for each compound collected over the same target protein were globally fit to a Langmuir 1:1 binding model with a global ka and kd, where ka is the association rate constant and kd is the dissociation rate constant for the protein-small molecule binding. The ratio of (kd/ka) indicated the value for the equilibrium dissociation constant (KD).

[2] = target: T1, bovine serum albumin (BSA); design: I (residues 1–183), II (184–376), III (377–583); purchased Sigma-Aldrich; method as in doi:10.1016/j.molstruc.2008.01.013; conditions: under physiological conditions; cited from earlier work

T1 sequence (P02769 25-607): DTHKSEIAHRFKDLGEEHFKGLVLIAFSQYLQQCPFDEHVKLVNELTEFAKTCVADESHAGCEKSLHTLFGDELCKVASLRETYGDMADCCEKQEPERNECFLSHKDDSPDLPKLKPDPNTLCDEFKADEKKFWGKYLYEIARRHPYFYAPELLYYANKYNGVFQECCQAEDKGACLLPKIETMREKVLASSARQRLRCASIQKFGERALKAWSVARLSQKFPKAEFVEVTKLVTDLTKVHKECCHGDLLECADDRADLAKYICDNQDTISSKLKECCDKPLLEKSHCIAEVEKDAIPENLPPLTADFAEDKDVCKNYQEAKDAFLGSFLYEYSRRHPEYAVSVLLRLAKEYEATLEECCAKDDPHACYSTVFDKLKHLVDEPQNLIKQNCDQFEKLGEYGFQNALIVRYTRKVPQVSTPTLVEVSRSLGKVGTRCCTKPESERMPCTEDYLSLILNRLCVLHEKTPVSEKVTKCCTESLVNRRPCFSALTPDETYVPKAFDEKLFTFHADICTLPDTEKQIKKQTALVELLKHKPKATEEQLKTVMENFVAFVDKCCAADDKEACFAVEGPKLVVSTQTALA

binding to the immobilized BSA (sensorgram) [1]	koff [1] [s⁻¹]	kon [1] [M⁻¹ s⁻¹]	difference in affinity for BSA between weakest and strongest binding compound ([1]; doxorubicin (weakest) versus salvianolic acid B (strongest))	Kd [1] [µM]	Compound	binding to BSA via spectroscopic investigation [2]
able to reversibly bind	0.73 ± 0.03	2	greater than 1000 fold		COc1cccc2c1C(=O)c1c(O)c3c(c(O)c1C2=O)C[C@@](O)(C(=O)CO)C[C@@H]3O[C@H]1C[C@H](N)[C@H](O)[C@H](C)O1 [doxorubicin, Doxorubicin, reference compound]	
no such binding					OC[C@H]1O[C@@H](OCCc2ccc(O)cc2)[C@H](O)[C@@H](O)[C@@H]1O [salidroside, Salidroside]	could bind to BSA
				510 ± 250	O=C(O)c1cc(O)c(O)c(O)c1 [gallic acid, Gallic acid]	
able to reversibly bind	1.96 ± 0.2	784		2560 ± 430	CC[C@]1(O)C[C@H]2CN(CCc3c([nH]c4ccccc34)[C@@](C(=O)OC)(c3cc4c(cc3OC)N(C=O)[C@H]3[C@@](O)(C(=O)OC)[C@H](OC(C)=O)[C@]5(CC)C=CCN6CC[C@]43[C@@H]65)C2)C1 [vincristine, Vincristine, reference compound]	
able to reversibly bind	0.09 ± 0.02	149		740 ± 360	C[C@@H]1O[C@@H](O[C@@H]2[C@@H](O)[C@H](OCCc3ccc(O)c(O)c3)O[C@H](CO)[C@H]2OC(=O)/C=C/c2ccc(O)c(O)c2)[C@H](O)[C@H](O)[C@H]1O [acteoside, Acteoside]	

Compound	binding to the immobilized BSA (sensorgram) [1]	koff [1] [s⁻¹]	kon [1] [M⁻¹ s⁻¹]	difference in affinity for BSA between weakest and strongest binding compound ([1]; doxorubicin (weakest) versus salvianolic acid B (strongest))	Kd [1] [µM]	binding to BSA via spectroscopic investigation [2]
Echinacoside	able to reversibly bind					
O=C(/C=C/c1ccc(O)c2c1[C@H](C(=O)O[C@H](Cc1ccc(O)c(O)c1)C(=O)O)[C@@H](c1ccc(O)c(O)c1)O2)O[C@H](Cc1ccc(O)c(O)c1)C(=O)O [salvianolic acid B, Salvianolic acid B]	able to reversibly bind	0.59 ± 0.24	2500		230 ± 70	
